Reference: BindingDB's records for doi:10.1016/s0960-894x(99)00489-8 (Glaxowellcome Medicines Research Centre, 1999)

Legend:
[1] = biological target: Human cytomegalovirus protease (assemblin) (Human herpesvirus 5); assay: Inhibitory activity against HCMV protease by SPA assay
[2] = biological target: Human cytomegalovirus protease (assemblin) (Human herpesvirus 5); assay: Inhibitory activity against HCMV protease by HPLC assay
[3] = biological target: Human cytomegalovirus protease (assemblin) (Human herpesvirus 5); assay: as above; remark: listed apart in the source

SMILES	IC50 [1] [µM]	IC50 [2] [µM]	IC50 [3] [µM]
CCOC(=O)C(C(C)=O)C1=C(Cl)C(=O)c2ccccc2C1=O (configuration not stated) [2-(3-Chloro-1,4-dioxo-1,4-dihydro-naphthalen-2-yl)-3-oxo-butyric acid ethyl ester]	1.45	4.8	–
CC(=O)C(C(C)=O)C1=C(Cl)C(=O)c2ccccc2C1=O [2-(1-Acetyl-2-oxo-propyl)-3-chloro-[1,4]naphthoquinone]	0.8	0.72	–
CC(=O)C(C(=O)OCc1ccccc1)C1=C(Cl)C(=O)c2ccccc2C1=O (configuration not stated) [2-(3-Chloro-1,4-dioxo-1,4-dihydro-naphthalen-2-yl)-3-oxo-butyric acid benzyl ester]	0.73	0.7	–

Now from value to compound:

IC50 [1] [µM]	IC50 [2] [µM]	IC50 [3] [µM]	SMILES
2.68	9.1	–	CC(=O)C(C(=O)OC(C)C)C1=C(Cl)C(=O)c2ccccc2C1=O (configuration not stated) [2-(3-Chloro-1,4-dioxo-1,4-dihydro-naphthalen-2-yl)-3-oxo-butyric acid isopropyl ester]
–	–	67	O=C1C(Cl)=C(C2CCCCCC2)C(=O)c2ccccc21 [2-Chloro-3-cycloheptyl-[1,4]naphthoquinone]
–	–	110	O=C1C(OC2CCCCC2)=C(C2CCCCC2)C(=O)c2ccccc21 [2-Cyclohexyl-3-cyclohexyloxy-[1,4]naphthoquinone]
–	–	148	COC(=O)CC1=C(Cl)C(=O)c2ccccc2C1=O [(3-Chloro-1,4-dioxo-1,4-dihydro-naphthalen-2-yl)-acetic acid methyl ester]
–	–	150	CC1(C)CC(=O)C(C2=C(Cl)C(=O)c3ccccc3C2=O)C(=O)C1 [2-Chloro-3-(4,4-dimethyl-2,6-dioxo-cyclohexyl)-[1,4]naphthoquinone]
